Experimental data published in patent publication US20260224548A1 (priority 2022, published 2026).
pIC50: −log10 of the molar value. Read-outs that look alike come from different tables or passages of the source.

How the values were obtained:
[1] = target: T1, HsEH (Homo sapiens, UniProt P34913); assay: biochemical; type: biochemical; settings: for IC50: PHOME substrate 50 μM, sEH 400 ng/ml, 37° C., 10 min, fluorescence 330/465 nm, read-out: HsEH IC50 (nM) Inhibitory activity against HsEH
T1 sequence (P34913 1-555): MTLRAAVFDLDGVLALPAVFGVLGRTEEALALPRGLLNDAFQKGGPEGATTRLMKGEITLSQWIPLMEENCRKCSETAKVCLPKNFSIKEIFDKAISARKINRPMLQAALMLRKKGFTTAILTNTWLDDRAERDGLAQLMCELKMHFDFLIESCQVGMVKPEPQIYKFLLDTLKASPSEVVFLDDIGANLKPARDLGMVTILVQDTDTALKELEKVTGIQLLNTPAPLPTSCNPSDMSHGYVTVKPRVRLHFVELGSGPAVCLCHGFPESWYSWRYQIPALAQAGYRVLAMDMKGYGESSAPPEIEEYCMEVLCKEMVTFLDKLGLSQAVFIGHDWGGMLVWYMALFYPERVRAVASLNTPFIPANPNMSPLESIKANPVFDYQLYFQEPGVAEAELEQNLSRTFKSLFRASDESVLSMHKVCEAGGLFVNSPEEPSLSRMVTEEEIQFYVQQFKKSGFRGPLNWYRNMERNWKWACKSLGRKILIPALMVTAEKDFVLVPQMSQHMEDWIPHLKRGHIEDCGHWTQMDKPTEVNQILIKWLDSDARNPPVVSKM
Description: (§1) Detection principle: a specific substrate, (3-phenyl-oxy)-acetic acid cyano-(6-methoxy-naphthalen-2-yl)methyl ester, namely PHOME, is non-fluorescent but can be hydrolyzed under the action of sEH enzyme to generate a product 6-methoxy-2-naphthaldehyde. The 6-methoxy-2-naphthaldehyde can emit fluorescence with a wavelength of 465 nm under 330 nm light wave excitation, and an intensity of the detected fluorescence signal is inversely proportional to an inhibitory effect on the sEH enzyme. Based on the above principle, the inhibition rates of samples with different concentrations were calculated compared with the positive control group. The IC50 value of the compound was calculated based on the inhibition rate and concentration using SPSS 20 software.
(§2) 25 mM Tris-HCl buffer (pH=7.4, containing 0.1 mg/mL BSA): […] BAS was added to 12.5 mL of 1 M Tris-HCl buffer, followed by diluting with purified water, and a resulting mixture was adjusted to a pH value of 7.4 with hydrochloric acid, and diluted to 500 mL.
(§3) PHOME solution: 0.79 mg PHOME was dissolved in 106 μL DMSO to obtain a 20 mM PHOME solution, which was diluted to ⅓ mM with Tris-HCl buffer before use.
(§4) sEH solution: sEH (5 mg/mL) stock solution was stored in a refrigerator at −80° C. and diluted to 4 μg/mL with 25 mM Tris-HCl buffer before use.
(§5) A sample powder to be tested was dissolved in DMSO to a 20 mM solution, stored in a refrigerator at −20° C. for later use, and diluted with Tris-HCl buffer to corresponding concentrations when used.
(§6) Experimental design: solvent group, 100% activity group (A), inhibitor group (B), positive control group (C), as shown in Table 1.
(§7) Three replicate wells were set for each sample, and the average value of the three replicate wells was the fluorescence value (F) of the compound to be tested. […] The IC50 value of the compound was calculated based on the inhibition rate and concentration using SPSS 20 software.

[2] = target: T2, MsEH (Mus musculus, UniProt P34914); assay: sEH inhibitory activity, PHOME fluorescence assay (MsEH); type: biochemical; settings: for IC50: PHOME substrate 50 μM, sEH 400 ng/ml, 37° C., 10 min, fluorescence 330/465 nm, read-out: MsEH IC50 (nM) Inhibitory activity against MsEH
T2 sequence (P34914 1-554): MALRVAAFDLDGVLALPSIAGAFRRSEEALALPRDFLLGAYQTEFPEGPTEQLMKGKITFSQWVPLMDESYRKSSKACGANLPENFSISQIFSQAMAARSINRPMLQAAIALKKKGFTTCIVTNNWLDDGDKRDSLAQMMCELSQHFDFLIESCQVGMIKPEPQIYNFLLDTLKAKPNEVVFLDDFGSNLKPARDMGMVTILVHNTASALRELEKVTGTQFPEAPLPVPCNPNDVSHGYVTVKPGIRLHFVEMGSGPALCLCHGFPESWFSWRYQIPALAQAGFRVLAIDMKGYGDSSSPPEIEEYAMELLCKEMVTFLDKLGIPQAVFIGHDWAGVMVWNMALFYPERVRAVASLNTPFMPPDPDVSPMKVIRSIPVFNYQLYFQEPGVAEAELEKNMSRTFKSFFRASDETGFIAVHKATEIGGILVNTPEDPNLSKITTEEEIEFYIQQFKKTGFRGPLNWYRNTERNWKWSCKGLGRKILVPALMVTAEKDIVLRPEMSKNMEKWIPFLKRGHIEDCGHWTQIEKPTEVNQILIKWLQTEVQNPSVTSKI
Description: as §1, §2, §3, §4, §5, §6, §7

**Q.** How did the IC50 [1] turn out when `CC12CC3CC(C)(C1)CC(NC(=O)Nc1ccc(C(=O)N4CCC[C@H](C(=O)N5CCN(CCO)CC5)C4)cc1F)(C3)C2` [CC-121, 1-((1r,3R,5S,7S)-3,5-dimethyladamantan-1-yl)-3-(2-fluoro-4-((S)-3-(4-(2-hydroxyethyl)piperazine-1-carbonyl)piperidine-1-carbonyl)phenyl) urea] was run?
**A.** Its IC50 is 0.84 nM.

**Q.** And the pIC50 [2]?
**A.** The pIC50 was 9.82.

**Q.** Which IC50 [1] does the source give for `CC12CC3CC(C)(C1)CC(NC(=O)Nc1ccc(C(=O)N4CCC[C@H](C(=O)NCCO)C4)cc1F)(C3)C2` [CC-120, (S)-1-(4-(3-((1r,3R,5S,7S)-3,5-dimethyladamantan-1-yl)ureido)-3-fluorobenzoyl)-N-(2-hydroxyethyl) piperidine-3-carboxamide] here?
**A.** The IC50 was 0.35 nM.

**Q.** What about the pIC50 [2] of the same compound?
**A.** The pIC50 was 9.82.

**Q.** With `CC12CC3CC(C)(C1)CC(NC(=O)Nc1ccc(C(=O)N[C@H]4CC[C@H](C(N)=O)CC4)cc1F)(C3)C2` [ZT-113, N-((1r,4R)-4-carbamoylcyclohexyl)-4-(3-((1r,3R,5S,7r)-3,5-dimethyladamantan-1-yl)ureido)-3-fluorobenzamide] as the compound, how does the IC50 [1] read?
**A.** The IC50 was 0.84 nM.

**Q.** What about the pIC50 [2] of the same compound?
**A.** Its pIC50 is 9.46.

**Q.** With `CCC(=O)N1CCC(CC(=O)N2CCCN(C(=O)c3ccc(NC(=O)NC45CC6CC(C)(CC(C)(C6)C4)C5)c(F)c3)CC2)CC1` [CC-105, 1-((1r,3R,5S, 7r)-3,5-dimethyladamantan-1-yl)-3-(2-fluoro-4-(4-(2-(1-propionylpiperidin-4-yl)acetyl)-1,4-diaza-1-carbonyl)phenyl) urea] as the compound, how does the pIC50 [1] read?
**A.** Its pIC50 is 9.05.

**Q.** What about the pIC50 [2] of the same compound?
**A.** Its pIC50 is 9.41.

**Q.** Which results are given for `C=CC(=O)N1CCCN(C(=O)[C@H]2CCCN(Cc3ccc(NC(=O)NC45CC6CC(C)(CC(C)(C6)C4)C5)c(F)c3)C2)CC1` [CL-201, 1-(4-(((S)-3-(4-acryloyl-1,4-diaza-1-carbonyl)piperidin-1-yl)methyl)-2-fluorophenyl)-3-((1r,3R,5S,7S)-3,5-dimethyladamantan-1-yl) urea]?
**A.** IC50 [1]: 0.42 nM; pIC50 [2]: 8.96

**Q.** `CC(=O)N1CCC(CC(=O)N2CCCN(Cc3ccc(NC(=O)NC45CC6CC(C)(CC(C)(C6)C4)C5)c(F)c3)CC2)CC1` [GL-3, 1-(4-((4-(2-(1-acetylpiperidin-4-yl)acetyl)-1,4-diaza-1-yl)methyl)-2-fluorophenyl)-3-((1r,3R,5S,7r)-3,5-dimethyladamantan-1-yl) urea] was tested. Which IC50 [1] did it give?
**A.** The IC50 was 0.49 nM.

**Q.** What about the pIC50 [2] of the same compound?
**A.** The pIC50 was 9.96.

**Q.** Which IC50 [1] does the source give for `CC12CC3CC(C)(C1)CC(NC(=O)Nc1ccc(C(=O)N4CCC(C(=O)NCCO)CC4)cc1F)(C3)C2` [CC-114, 1-(4-(3-((1r,3R,5S,7r)-3,5-dimethyladamantan-1-yl)ureido)-3-fluorobenzoyl)-N-(2-hydroxyethyl) piperidine-4-carboxamide] here?
**A.** The IC50 was 3.43 nM.

**Q.** And the pIC50 [2]?
**A.** Its pIC50 is 9.59.

**Q.** Which results are given for “methyl 4-(2-(4-(4-(3-((1r,3R,5S,7r)-3,5-dimethyladamantan-1-yl) ureido)-3-fluorobenzyl)-1,4-diaza-1-yl)-2-oxoethyl) piperidine-1-carboxylate [GL-4]”?
**A.** IC50 [1]: 1.1 nM; IC50 [2]: 0.41 nM

**Q.** For `CCC(=O)N1CCCN(C(=O)[C@H]2CCCN(C(=O)c3ccc(NC(=O)NC45CC6CC(C)(CC(C)(C6)C4)C5)c(F)c3)C2)CC1` [GL-102, 1-((1r,3R,5S,7S)-3,5-dimethyladamantan-1-yl)-3-(2-fluoro-4-((S)-3-(4-propionyl-1,4-diaza-1-carbonyl)piperidine-1-carbonyl)phenyl) urea], which IC50 [1] is on record?
**A.** Its IC50 is 0.56 nM.

**Q.** What about the pIC50 [2] of the same compound?
**A.** The pIC50 was 9.24.

**Q.** For `CC12CC3CC(C)(C1)CC(NC(=O)Nc1ccc(CN4CCCN(C(=O)CC5CCN(CC(O)CO)CC5)CC4)cc1F)(C3)C2` [GL-22, 1-(4-((4-(2-(1-(2,3-dihydroxypropyl)piperidin-4-yl)acetyl)-1,4-diaza-1-yl)methyl)-2-fluorophenyl)-3-((1r,3R,5S,7r)-3,5-dimethyladamantan-1-yl) urea], which IC50 [1] is on record?
**A.** Its IC50 is 58.1 nM.

**Q.** And the pIC50 [2]?
**A.** The pIC50 was 8.90.

**Q.** With `CC12CC3CC(C)(C1)CC(NC(=O)Nc1ccc(CN4CCC(C(=O)NC(CO)CO)CC4)cc1F)(C3)C2` [CL-119, N-(1,3-dihydroxypropan-2-yl)-1-(4-(3-((1r,7r)-3,5-dimethyladamantan-1-yl)ureido)-3-fluorobenzyl) piperidine-4-carboxamide] as the compound, how does the pIC50 [1] read?
**A.** The pIC50 was 7.50.

**Q.** And the pIC50 [2]?
**A.** The pIC50 was 8.65.

**Q.** Which IC50 [1] does the source give for “1-((1r,3R,5S,7S)-3,5-dimethyladamantan-1-yl)-3-(2-fluoro-4-(((3S)-3-(4-(2-methylbutanoyl)-1,4-diaza-1-carbonyl) piperidin-1-yl)methyl)phenyl) urea [CL-103]” here?
**A.** The IC50 was 0.25 nM.

**Q.** What about the IC50 [2] of the same compound?
**A.** The IC50 was 0.62 nM.

**Q.** What does the source list for `C[C@]12CC3CC(NC(=O)Nc4ccc(C(=O)NC5CCC(C(=O)NC(CO)CO)CC5)cc4F)(C1)C[C@@](C)(C3)C2` (stereo partly drawn) [ZT-114, N-((1r,4R)-4-((1,3-dihydroxypropan-2-yl)carbamoyl)cyclohexyl)-4-(3-((1r,3R,5S,7r)-3,5-dimethyladamantan-1-yl)ureido)-3-fluorobenzamide]?
**A.** IC50 [1]: 0.91 nM; IC50 [2]: 0.55 nM

**Q.** `CC(CN(C)C)N1CCC(CC(=O)N2CCCN(C(=O)c3ccc(NC(=O)NC45CC6CC(C)(CC(C)(C6)C4)C5)c(F)c3)CC2)CC1` [CC-124, 1-((1r,3R,5S,7r)-3,5-dimethyladamantan-1-yl)-3-(4-(4-(2-(1-(1-(dimethylamino)propan-2-yl)piperidin-4-yl)acetyl)-1,4-diaza-1-carbonyl)-2-fluorophenyl) urea] was tested. Which IC50 [1] did it give?
**A.** The IC50 was 19.6 nM.

**Q.** What about the pIC50 [2] of the same compound?
**A.** The pIC50 was 9.10.

**Q.** Which results are given for `CC(O)CNC(=O)C1CCN(C(=O)c2ccc(NC(=O)NC34CC5CC(C)(CC(C)(C5)C3)C4)c(F)c2)CC1` [CC-115, 1-(4-(3-((1r,3R,5S,7r)-3,5-dimethyladamantan-1-yl)ureido)-3-fluorobenzoyl)-N-(2-hydroxypropyl) piperidine-4-carboxamide]?
**A.** IC50 [1]: 4.5 nM; pIC50 [2]: 9.74

**Q.** How did the IC50 [1] turn out when `CC12CC3CC(C)(C1)CC(NC(=O)Nc1ccc(C(=O)N[C@H]4CC[C@H](C(=O)NCCN5CCN(C(=O)OC(C)(C)C)CC5)CC4)cc1F)(C3)C2` [ZT-116, tert-butyl 4-(2-((1R,4r)-4-(4-(3-((1r,3R,5S,7r)-3,5-dimethyladamantan-1-yl)ureido)-3-fluorobenzamido)cyclohexane-1-carboxamido)ethyl) piperazine-1-carboxylate] was run?
**A.** The IC50 was 183 nM.

**Q.** And the pIC50 [2]?
**A.** The pIC50 was 8.70.

**Q.** Which results are given for `CC12CC3CC(C)(C1)CC(NC(=O)Nc1ccc(C(=O)N4CCC(C(=O)NC(CO)CO)CC4)cc1F)(C3)C2` [CC-116, N-(1,3-dihydroxypropan-2-yl)-1-(4-(3-((1r,3R,5S, 7r)-3,5-dimethyladamantan-1-yl)ureido)-3-fluorobenzoyl) piperidine-4-carboxamide]?
**A.** IC50 [1]: 7.1 nM; IC50 [2]: 0.55 nM

**Q.** How did the pIC50 [1] turn out when `CC(O)CNC(=O)C1CCN(Cc2ccc(NC(=O)NC34CC5CC(C)(CC(C)(C5)C3)C4)c(F)c2)CC1` (centres unmarked) [CL-120, 1-(4-(3-((1r,7r)-3,5-dimethyladamantan-1-yl)ureido)-3-fluorobenzyl)-N-(2-hydroxypropyl) piperidine-4-carboxamide] was run?
**A.** The pIC50 was 8.22.

**Q.** What about the pIC50 [2] of the same compound?
**A.** The pIC50 was 9.33.

**Q.** With “1-((1r,3R,5S,7S)-3,5-dimethyladamantan-1-yl)-3-(2-fluoro-4-(((S)-3-(4-propionyl-1,4-)diaza-1-carbonyl) piperidin-1-yl)methyl)phenyl) urea [CL-102]” as the compound, how does the IC50 [1] read?
**A.** Its IC50 is 0.05 nM.

**Q.** And the IC50 [2]?
**A.** Its IC50 is 0.14 nM.
